Among the data in PubChem BioAssay AID250 (DTP/NCI, 2004) are T/C values, retold here.

This assay relates to BDF1 mice, L1210 leukemia sc, survival T/C. As to the kind of experiment: NCI In Vivo Anticancer Drug Screen. Data for tumor model L1210 Leukemia (subcutaneous) in B6D2F1 (BDF1) mice. As to conditions: higher = longer survival. A digest of the protocol: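 Read-out: T/C ratio, i.e. survival or tumor size in treated mice over that in vehicle-treated controls, from mice bearing transplantable tumors.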

Where [1] appears, read: endpoint: median survival time, dose: 65.0 mg/kg/injection, schedule: Q01DX Z (sc), vehicle: saline.
Setting [2] is: endpoint: median survival time, dose: 180.0 mg/kg/injection, schedule: Q01DX Z (sc), vehicle: saline.
Setting [3] is: endpoint: median survival time, dose: 300.0 mg/kg/injection, schedule: Q01DX Z (sc), vehicle: saline.
Setting [4] is: endpoint: median survival time, dose: 39.0 mg/kg/injection, schedule: Q01DX Z (sc), vehicle: methylcellulose (MC).
[5] abbreviates: endpoint: median survival time, dose: 65.0 mg/kg/injection, schedule: Q01DX Z (sc), vehicle: methylcellulose (MC).
Where [6] appears, read: endpoint: median survival time, dose: 108.0 mg/kg/injection, schedule: Q01DX Z (sc), vehicle: methylcellulose (MC).
[7] abbreviates: endpoint: median survival time, dose: 180.0 mg/kg/injection, schedule: Q01DX Z (sc), vehicle: methylcellulose (MC).
Setting [8] is: endpoint: median survival time, dose: 300.0 mg/kg/injection, schedule: Q01DX Z (sc), vehicle: methylcellulose (MC).
The mark [9] stands for this setting: endpoint: median survival time, dose: 500.0 mg/kg/injection, schedule: Q01DX Z (sc), vehicle: methylcellulose (MC).
[10] abbreviates: endpoint: median survival time, dose: 8.4 mg/kg/injection, schedule: Q01DX Z (sc), vehicle: carboxymethylcellulose (CMC).
Setting [11] is: endpoint: median survival time, dose: 14.0 mg/kg/injection, schedule: Q01DX Z (sc), vehicle: carboxymethylcellulose (CMC).
[12] abbreviates: endpoint: median survival time, dose: 23.0 mg/kg/injection, schedule: Q01DX Z (oral), vehicle: carboxymethylcellulose (CMC).
Setting [13] is: endpoint: median survival time, dose: 23.0 mg/kg/injection, schedule: Q01DX Z (sc), vehicle: carboxymethylcellulose (CMC).
Setting [14] is: endpoint: median survival time, dose: 39.0 mg/kg/injection, schedule: Q01DX Z (oral), vehicle: carboxymethylcellulose (CMC).
The mark [15] stands for this setting: endpoint: median survival time, dose: 65.0 mg/kg/injection, schedule: Q01DX Z (oral), vehicle: carboxymethylcellulose (CMC).
Where [16] appears, read: endpoint: median survival time, dose: 23.0 mg/kg/injection, schedule: Q01DX Z (sc), vehicle: water.
The mark [17] stands for this setting: endpoint: median survival time, dose: 65.0 mg/kg/injection, schedule: Q01DX Z (sc), vehicle: carboxymethylcellulose (CMC).
[18] abbreviates: endpoint: median survival time, dose: 39.0 mg/kg/injection, schedule: Q01DX Z (sc), vehicle: water.
Where [19] appears, read: endpoint: median survival time, dose: 65.0 mg/kg/injection, schedule: Q01DX Z (sc), vehicle: water.
The mark [20] stands for this setting: endpoint: median survival time, dose: 108.0 mg/kg/injection, schedule: Q01DX Z (sc), vehicle: water.
Setting [21] is: endpoint: median survival time, dose: 180.0 mg/kg/injection, schedule: Q01DX Z (sc), vehicle: water.
Where [22] appears, read: endpoint: median survival time, dose: 300.0 mg/kg/injection, schedule: Q01DX Z (sc), vehicle: water.

Values joined by “and” are separate entries in the source; they are usually repeats but may differ in a detail not shown here. Equal entries are not always repeated. Inconclusive results and toxic doses are left out.

Take `O=C(O)c1cc(=O)[nH]c(=O)[nH]1`: the T/C is, setting by setting: under setting [1], 100 % of control; under setting [2], 100 % of control; under setting [3], 100 % of control.
Take `COc1ccc2[nH]c3c(C)c4ccncc4c(C)c3c2c1`: the T/C runs as follows: (endpoint: median survival time, dose: 39.0 mg/kg/injection, schedule: Q01DX Z (sc), vehicle: saline) 100 % of control; under setting [1], 100 % of control; (endpoint: median survival time, dose: 108.0 mg/kg/injection, schedule: Q01DX Z (sc), vehicle: saline) 112 % of control; under setting [2], 116 % of control; under setting [3], 116 % of control.
`CC(=O)Nc1ccc2c(Nc3ccc(NS(C)(=O)=O)cc3)c3ccccc3nc2c1`: the T/C is 114 % of control (endpoint: mean survival time, dose: 1.5 mg/kg/injection, schedule: Q01DX009 (sc), vehicle: saline); 111 % of control (endpoint: mean survival time, dose: 3.0 mg/kg/injection, schedule: Q01DX009 (sc), vehicle: saline); 121 % of control (endpoint: mean survival time, dose: 6.25 mg/kg/injection, schedule: Q01DX009 (sc), vehicle: saline); 182 % of control (endpoint: mean survival time, dose: 12.5 mg/kg/injection, schedule: Q01DX009 (sc), vehicle: saline).
`C=C(C)c1ccc(/C=N/NC(N)=S)cc1`: the T/C is 109 % of control under setting [4]; 109 % of control under setting [5]; 109 % of control under setting [6]; 109 % of control under setting [7]; 113 % of control under setting [8]; 109 % of control under setting [9].
As for `O=NN(CCF)C(=O)NC1CCCCC1`, the T/C is, setting by setting: under setting [10], 289 % of control; under setting [11], 347 % of control; under setting [12], 321 % of control; under setting [13], 305 % of control; under setting [14], 242 % of control; under setting [15], 163 % of control. Moreover, where the note is “endpoint: median survival time, dose: 108.0 mg/kg/injection, schedule: Q01DX Z (oral), vehicle: carboxymethylcellulose (CMC)”, the T/C was 121 % of control.
As to `O=C(Nc1ccc(C2=NCCCN2)cc1)c1ccc(C(=O)Nc2ccc(C3=NCCCN3)cc2)nc1`, the T/C was 100 % of control (endpoint: median survival time, dose: 3.0 mg/kg/injection, schedule: Q01DX Z (sc), vehicle: water); 100 % of control (endpoint: median survival time, dose: 5.0 mg/kg/injection, schedule: Q01DX Z (sc), vehicle: water); 100 % of control (endpoint: median survival time, dose: 8.4 mg/kg/injection, schedule: Q01DX Z (sc), vehicle: water); 88 % of control (endpoint: median survival time, dose: 14.0 mg/kg/injection, schedule: Q01DX Z (sc), vehicle: water); 100 % of control under setting [16].
Consider `O=NN(CCCl)C(=O)N[C@H]1CCCC[C@@H]1Cl`, for which the T/C was 111 % of control (endpoint: median survival time, dose: 3.0 mg/kg/injection, schedule: Q01DX Z (sc), vehicle: carboxymethylcellulose (CMC)); 111 % of control (endpoint: median survival time, dose: 5.0 mg/kg/injection, schedule: Q01DX Z (sc), vehicle: carboxymethylcellulose (CMC)); 211 % of control under setting [10]; 668 % of control (endpoint: median survival time, dose: 11.3 mg/kg/injection, schedule: Q01DX Z (sc), vehicle: carboxymethylcellulose (CMC)); 336 % of control and 472 % of control under setting [11]; 493 % of control (endpoint: median survival time, dose: 22.5 mg/kg/injection, schedule: Q01DX Z (sc), vehicle: carboxymethylcellulose (CMC)). The T/C reads like this: under setting [12], 326 % of control; under setting [13], 272 % of control and 336 % of control; under setting [14], 189 % of control; (endpoint: median survival time, dose: 39.0 mg/kg/injection, schedule: Q01DX Z (sc), vehicle: carboxymethylcellulose (CMC)) 278 % of control; (endpoint: median survival time, dose: 45.0 mg/kg/injection, schedule: Q01DX Z (sc), vehicle: carboxymethylcellulose (CMC)) 300 % of control; under setting [15], 163 % of control. Moreover, the T/C under setting [17] is 194 % of control; the T/C (endpoint: median survival time, dose: 90.0 mg/kg/injection, schedule: Q01DX Z (sc), vehicle: carboxymethylcellulose (CMC)) was 150 % of control; the T/C (endpoint: median survival time, dose: 180.0 mg/kg/injection, schedule: Q01DX Z (oral), vehicle: carboxymethylcellulose (CMC)) is 115 % of control; the T/C (endpoint: median survival time, dose: 300.0 mg/kg/injection, schedule: Q01DX Z (oral), vehicle: carboxymethylcellulose (CMC)) is 105 % of control.
`O=C(Nc1ccc(C2=NCCN2)cc1)c1ccc(C(=O)Nc2ccc(C3=NCCN3)cc2)c(NC(=O)c2ccc(C(=O)Nc3cc(C(=O)Nc4ccc(C5=NCCN5)cc4)ccc3C(=O)Nc3ccc(C4=NCCN4)cc3)cc2)c1`: the T/C under setting [16] was 110 % of control; the T/C under setting [18] is 100 % of control; the T/C under setting [19] is 100 % of control; the T/C under setting [20] was 100 % of control; the T/C under setting [21] is 100 % of control; the T/C under setting [22] was 100 % of control.
For the compound `CC(C)NNC(=O)c1ccncc1`, the T/C is 105 % of control and 106 % of control (endpoint: median survival time, dose: 200.0 mg/kg/injection, schedule: Q01DX001 (sc), vehicle: saline); 100 % of control and 103 % of control (endpoint: median survival time, dose: 400.0 mg/kg/injection, schedule: Q01DX001 (sc), vehicle: saline).
Take `Cc1c(O)ccc(=O)n1O`: the T/C was 100 % of control under setting [17]; 100 % of control (endpoint: median survival time, dose: 108.0 mg/kg/injection, schedule: Q01DX Z (sc), vehicle: carboxymethylcellulose (CMC)); 100 % of control (endpoint: median survival time, dose: 180.0 mg/kg/injection, schedule: Q01DX Z (sc), vehicle: carboxymethylcellulose (CMC)); 100 % of control (endpoint: median survival time, dose: 300.0 mg/kg/injection, schedule: Q01DX Z (sc), vehicle: carboxymethylcellulose (CMC)); 100 % of control (endpoint: median survival time, dose: 500.0 mg/kg/injection, schedule: Q01DX Z (sc), vehicle: carboxymethylcellulose (CMC)).
In the case of `COc1ccc(/C=N/NC(N)=S)cc1`, the T/C under setting [4] is 95 % of control; the T/C under setting [18] is 100 % of control; the T/C under setting [5] was 100 % of control; the T/C under setting [19] is 100 % of control; the T/C under setting [6] was 100 % of control; the T/C under setting [20] was 100 % of control. Besides, the T/C runs as follows: under setting [7], 95 % of control; under setting [21], 100 % of control; (endpoint: median survival time, dose: 216.0 mg/kg/injection, schedule: Q01DX Z (sc), vehicle: water) 100 % of control; under setting [8], 100 % of control; under setting [22], 100 % of control; (endpoint: median survival time, dose: 360.0 mg/kg/injection, schedule: Q01DX Z (sc), vehicle: water) 111 % of control. Also, the T/C under setting [9] was 100 % of control; the T/C (endpoint: median survival time, dose: 500.0 mg/kg/injection, schedule: Q01DX Z (sc), vehicle: water) is 100 % of control; the T/C (endpoint: median survival time, dose: 600.0 mg/kg/injection, schedule: Q01DX Z (sc), vehicle: water) was 105 % of control; the T/C (endpoint: median survival time, dose: 1000.0 mg/kg/injection, schedule: Q01DX Z (sc), vehicle: water) is 111 % of control.
For `N=[N+]=CC(=O)CCC(NC(=O)C(CCC(=O)C=[N+]=N)NC(=O)CCC(N)C(=O)O)C(=O)O` (stereo not given), the T/C is 94 % of control (endpoint: median survival time, dose: 0.1 mg/kg/injection, schedule: Q01DX009 (ip), vehicle: water); 95 % of control and 106 % of control (endpoint: median survival time, dose: 0.1 mg/kg/injection, schedule: Q01DX009 (sc), vehicle: water); 94 % of control (endpoint: median survival time, dose: 0.2 mg/kg/injection, schedule: Q01DX009 (ip), vehicle: water); 102 % of control (endpoint: median survival time, dose: 0.2 mg/kg/injection, schedule: Q01DX009 (sc), vehicle: water); 95 % of control (endpoint: median survival time, dose: 0.4 mg/kg/injection, schedule: Q01DX009 (ip), vehicle: water); 103 % of control (endpoint: median survival time, dose: 0.4 mg/kg/injection, schedule: Q01DX009 (sc), vehicle: water). The T/C runs as follows: (endpoint: median survival time, dose: 0.8 mg/kg/injection, schedule: Q01DX009 (ip), vehicle: water) 95 % of control; (endpoint: median survival time, dose: 0.8 mg/kg/injection, schedule: Q01DX009 (sc), vehicle: water) 101 % of control and 102 % of control; (endpoint: median survival time, dose: 1.6 mg/kg/injection, schedule: Q01DX009 (ip), vehicle: water) 91 % of control; (endpoint: median survival time, dose: 1.6 mg/kg/injection, schedule: Q01DX009 (sc), vehicle: water) 103 % of control and 106 % of control.
